Measured values as given in ChEMBL document CHEMBL5723582, “Data for DCP probe T-10430” (2024).

Tests used:
[1] = target: 5-hydroxytryptamine receptor 2A (Homo sapiens) (UniProt P28223); test: RLU of HTR2A at 1.0 µM in the […] PRESTO-Tango GPCRome screen; settings: Compound concentration 1.0 uM
[2] = target: Neurotensin receptor type 2 (Homo sapiens) (UniProt O95665); test: RLU of NTSR2 at 1.0 µM in the […] PRESTO-Tango GPCRome screen; settings: Compound concentration 1.0 uM
[3] = target: Prokineticin receptor 1 (Homo sapiens) (UniProt Q8TCW9); test: RLU of PK1 at 1.0 µM in the […] PRESTO-Tango GPCRome screen; settings: Compound concentration 1.0 uM
[4] = target: Prostaglandin E2 receptor EP2 subtype (Homo sapiens) (UniProt P43116); test: RLU of PTGER2 at 1.0 µM in the […] PRESTO-Tango GPCRome screen; settings: Compound concentration 1.0 uM
[5] = target: G-protein coupled receptor 37-like 1 (Homo sapiens) (UniProt O60883); test: RLU of GPR37L1 at 1.0 µM in the […] PRESTO-Tango GPCRome screen; settings: Compound concentration 1.0 uM
[6] = target: 5-hydroxytryptamine receptor 1E (Homo sapiens) (UniProt P28566); test: RLU of HTR1E at 1.0 µM in the […] PRESTO-Tango GPCRome screen; settings: Compound concentration 1.0 uM
[7] = target: Type-1 angiotensin II receptor (Homo sapiens, UniProt P30556); test: IP-One assay (AGTR1), antagonist mode at up to 50 µM ( vs. 10 nM Val5-Angiotensin II); assay type: functional; set-up: compound concentration < 50 uM
[8] = target: Prostacyclin receptor (Homo sapiens) (UniProt P43119); test: RLU of PTGIR at 1.0 µM in the […] PRESTO-Tango GPCRome screen; settings: Compound concentration 1.0 uM
[9] = target: Sphingosine 1-phosphate receptor 2 (Homo sapiens) (UniProt O95136); test: RLU of S1PR2 at 1.0 µM in the […] PRESTO-Tango GPCRome screen; settings: Compound concentration 1.0 uM
[10] = target: P2Y purinoceptor 11 (Homo sapiens) (UniProt Q96G91); test: RLU of P2RY11 at 1.0 µM in the […] PRESTO-Tango GPCRome screen; settings: Compound concentration 1.0 uM
[11] = target: Delta-type opioid receptor (Homo sapiens) (UniProt P41143); test: RLU of OPRD1 at 1.0 µM in the […] PRESTO-Tango GPCRome screen; settings: Compound concentration 1.0 uM
[12] = target: G-protein coupled receptor 35 (Homo sapiens) (UniProt Q9HC97); test: RLU of GPR35 at 1.0 µM in the […] PRESTO-Tango GPCRome screen; settings: Compound concentration 1.0 uM
[13] = target: Proteinase-activated receptor 1 (Homo sapiens) (UniProt P25116); test: RLU of F2R at 1.0 µM in the […] PRESTO-Tango GPCRome screen; settings: Compound concentration 1.0 uM
[14] = target: Adrenocorticotropic hormone receptor (Homo sapiens) (UniProt Q01718); test: RLU of MC2R at 1.0 µM in the […] PRESTO-Tango GPCRome screen; settings: Compound concentration 1.0 uM
[15] = target: G-protein coupled receptor 65 (Homo sapiens) (UniProt Q8IYL9); test: RLU of GPR65 at 1.0 µM in the […] PRESTO-Tango GPCRome screen; settings: Compound concentration 1.0 uM
[16] = target: Chemerin-like receptor 1 (Homo sapiens) (UniProt Q99788); test: RLU of CMKLR1 at 1.0 µM in the […] PRESTO-Tango GPCRome screen; settings: Compound concentration 1.0 uM
[17] = target: Motilin receptor (Homo sapiens) (UniProt O43193); test: RLU of MLNR at 1.0 µM in the […] PRESTO-Tango GPCRome screen; settings: Compound concentration 1.0 uM
[18] = target: Type-1 angiotensin II receptor (Homo sapiens) (UniProt P30556); test: RLU of AGTR1 at 1.0 µM in the […] PRESTO-Tango GPCRome screen; settings: Compound concentration 1.0 uM
[19] = target: Relaxin-3 receptor 2 (Homo sapiens) (UniProt Q8TDU9); test: RLU of RXFP4 at 1.0 µM in the […] PRESTO-Tango GPCRome screen; settings: Compound concentration 1.0 uM
[20] = target: Gastrin-releasing peptide receptor (Homo sapiens) (UniProt P30550); test: RLU of GRPR at 1.0 µM in the Aequorin PRESTO-Tango GPCRome screen; settings: Compound concentration 1.0 uM
[21] = target: G-protein coupled receptor 6 (Homo sapiens) (UniProt P46095); test: RLU of GPR6 at 1.0 µM in the […] PRESTO-Tango GPCRome screen; settings: Compound concentration 1.0 uM
[22] = target: Neurotensin receptor type 1 (Homo sapiens) (UniProt P30989); test: RLU of NTSR1 at 1.0 µM in the […] PRESTO-Tango GPCRome screen; settings: Compound concentration 1.0 uM
[23] = target: 12-(S)-hydroxy-5,8,10,14-eicosatetraenoic acid receptor (Homo sapiens) (UniProt O00270); test: RLU of GPR31 at 1.0 µM in the […] PRESTO-Tango GPCRome screen; settings: Compound concentration 1.0 uM
[24] = target: Gastrin/cholecystokinin type B receptor (Homo sapiens) (UniProt P32239); test: RLU of CCKBR at 1.0 µM in the […] PRESTO-Tango GPCRome screen; settings: Compound concentration 1.0 uM
[25] = target: Neuropeptide S receptor (Homo sapiens) (UniProt Q6W5P4); test: RLU of NPS at 1.0 µM in the […] PRESTO-Tango GPCRome screen; settings: Compound concentration 1.0 uM
[26] = target: Alpha-1B adrenergic receptor (Homo sapiens) (UniProt P35368); test: RLU of ADRA1B at 1.0 µM in the […] PRESTO-Tango GPCRome screen; settings: Compound concentration 1.0 uM
[27] = system: Pyroglutamylated RFamide peptide receptor (Homo sapiens); test: RLU of QRFP at 1.0 µM in the […] PRESTO-Tango GPCRome screen; settings: Compound concentration 1.0 uM
[28] = target: Galanin receptor type 2 (Homo sapiens) (UniProt O43603); test: RLU of GAL2 at 1.0 µM in the […] PRESTO-Tango GPCRome screen; settings: Compound concentration 1.0 uM
[29] = target: 5-hydroxytryptamine receptor 2B (Homo sapiens) (UniProt P41595); test: RLU of HTR2B at 1.0 µM in the […] PRESTO-Tango GPCRome screen; settings: Compound concentration 1.0 uM
[30] = target: C-X-C chemokine receptor type 1 (Homo sapiens) (UniProt P25024); test: RLU of CXCR1 at 1.0 µM in the […] PRESTO-Tango GPCRome screen; settings: Compound concentration 1.0 uM
[31] = target: Metabotropic glycine receptor (Homo sapiens) (UniProt Q5T848); test: RLU of GPR158 at 1.0 µM in the […] PRESTO-Tango GPCRome screen; settings: Compound concentration 1.0 uM
[32] = target: G-protein coupled receptor family C group 5 member B (Homo sapiens) (UniProt Q9NZH0); test: RLU of GPRC5B at 1.0 µM in the […] PRESTO-Tango GPCRome screen; settings: Compound concentration 1.0 uM
[33] = target: G-protein coupled receptor 62 (Homo sapiens) (UniProt Q9BZJ7); test: RLU of GPR62 at 1.0 µM in the […] PRESTO-Tango GPCRome screen; settings: Compound concentration 1.0 uM
[34] = target: Adhesion G-protein coupled receptor F3 (Homo sapiens) (UniProt Q8IZF5); test: RLU of GPR113 at 1.0 µM in the […] PRESTO-Tango GPCRome screen; settings: Compound concentration 1.0 uM
[35] = target: Probable G-protein coupled receptor 132 (Homo sapiens) (UniProt Q9UNW8); test: RLU of G2A at 1.0 µM in the […] PRESTO-Tango GPCRome screen; settings: Compound concentration 1.0 uM
Chain of Probable G-protein coupled receptor 132 (Homo sapiens) (Q9UNW8 whole entry): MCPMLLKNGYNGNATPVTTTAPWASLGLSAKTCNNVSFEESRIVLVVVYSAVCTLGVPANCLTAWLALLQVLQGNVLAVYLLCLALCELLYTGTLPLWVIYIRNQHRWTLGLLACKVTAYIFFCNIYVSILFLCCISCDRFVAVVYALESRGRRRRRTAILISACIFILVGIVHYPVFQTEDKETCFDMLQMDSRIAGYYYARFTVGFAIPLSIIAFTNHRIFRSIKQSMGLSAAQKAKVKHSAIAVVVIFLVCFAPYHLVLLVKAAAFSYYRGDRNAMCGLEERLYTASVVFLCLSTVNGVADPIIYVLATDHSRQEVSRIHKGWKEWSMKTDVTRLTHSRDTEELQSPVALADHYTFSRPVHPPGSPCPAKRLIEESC

Chain of Gastrin-releasing peptide receptor (Homo sapiens) (P30550 whole entry, looked up): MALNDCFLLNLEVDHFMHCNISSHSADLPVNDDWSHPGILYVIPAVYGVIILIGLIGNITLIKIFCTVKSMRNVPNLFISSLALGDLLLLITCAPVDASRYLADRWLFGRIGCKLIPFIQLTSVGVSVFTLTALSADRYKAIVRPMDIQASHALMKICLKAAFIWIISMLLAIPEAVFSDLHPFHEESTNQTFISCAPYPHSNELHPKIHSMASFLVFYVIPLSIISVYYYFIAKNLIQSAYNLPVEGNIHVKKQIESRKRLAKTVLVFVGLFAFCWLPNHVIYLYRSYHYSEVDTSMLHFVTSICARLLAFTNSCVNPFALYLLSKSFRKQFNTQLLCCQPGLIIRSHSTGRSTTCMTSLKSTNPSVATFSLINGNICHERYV
Chain of 12-(S)-hydroxy-5,8,10,14-eicosatetraenoic acid receptor (Homo sapiens) (O00270 whole entry): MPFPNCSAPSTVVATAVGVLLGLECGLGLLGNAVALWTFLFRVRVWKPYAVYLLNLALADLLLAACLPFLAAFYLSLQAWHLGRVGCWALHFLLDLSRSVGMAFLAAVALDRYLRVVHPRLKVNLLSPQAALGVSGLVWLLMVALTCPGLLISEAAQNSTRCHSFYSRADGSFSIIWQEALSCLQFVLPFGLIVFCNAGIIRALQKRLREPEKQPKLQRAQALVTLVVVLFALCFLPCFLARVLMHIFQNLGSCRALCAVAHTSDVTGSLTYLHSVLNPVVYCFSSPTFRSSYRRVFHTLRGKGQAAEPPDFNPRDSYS
Chain of Motilin receptor (Homo sapiens) (O43193 whole entry): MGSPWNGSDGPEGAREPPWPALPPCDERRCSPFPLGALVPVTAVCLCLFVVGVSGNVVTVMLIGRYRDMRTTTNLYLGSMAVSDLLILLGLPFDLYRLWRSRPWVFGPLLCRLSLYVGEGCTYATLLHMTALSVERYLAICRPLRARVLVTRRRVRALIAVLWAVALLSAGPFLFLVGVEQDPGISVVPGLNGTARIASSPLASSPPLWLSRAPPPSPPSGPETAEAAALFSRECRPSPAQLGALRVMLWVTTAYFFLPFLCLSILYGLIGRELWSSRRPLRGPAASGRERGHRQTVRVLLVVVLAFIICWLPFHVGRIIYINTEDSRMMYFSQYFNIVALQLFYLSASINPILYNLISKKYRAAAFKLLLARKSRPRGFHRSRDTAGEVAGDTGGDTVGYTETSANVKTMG
Chain of Adhesion G-protein coupled receptor F3 (Homo sapiens) (Q8IZF5 whole entry): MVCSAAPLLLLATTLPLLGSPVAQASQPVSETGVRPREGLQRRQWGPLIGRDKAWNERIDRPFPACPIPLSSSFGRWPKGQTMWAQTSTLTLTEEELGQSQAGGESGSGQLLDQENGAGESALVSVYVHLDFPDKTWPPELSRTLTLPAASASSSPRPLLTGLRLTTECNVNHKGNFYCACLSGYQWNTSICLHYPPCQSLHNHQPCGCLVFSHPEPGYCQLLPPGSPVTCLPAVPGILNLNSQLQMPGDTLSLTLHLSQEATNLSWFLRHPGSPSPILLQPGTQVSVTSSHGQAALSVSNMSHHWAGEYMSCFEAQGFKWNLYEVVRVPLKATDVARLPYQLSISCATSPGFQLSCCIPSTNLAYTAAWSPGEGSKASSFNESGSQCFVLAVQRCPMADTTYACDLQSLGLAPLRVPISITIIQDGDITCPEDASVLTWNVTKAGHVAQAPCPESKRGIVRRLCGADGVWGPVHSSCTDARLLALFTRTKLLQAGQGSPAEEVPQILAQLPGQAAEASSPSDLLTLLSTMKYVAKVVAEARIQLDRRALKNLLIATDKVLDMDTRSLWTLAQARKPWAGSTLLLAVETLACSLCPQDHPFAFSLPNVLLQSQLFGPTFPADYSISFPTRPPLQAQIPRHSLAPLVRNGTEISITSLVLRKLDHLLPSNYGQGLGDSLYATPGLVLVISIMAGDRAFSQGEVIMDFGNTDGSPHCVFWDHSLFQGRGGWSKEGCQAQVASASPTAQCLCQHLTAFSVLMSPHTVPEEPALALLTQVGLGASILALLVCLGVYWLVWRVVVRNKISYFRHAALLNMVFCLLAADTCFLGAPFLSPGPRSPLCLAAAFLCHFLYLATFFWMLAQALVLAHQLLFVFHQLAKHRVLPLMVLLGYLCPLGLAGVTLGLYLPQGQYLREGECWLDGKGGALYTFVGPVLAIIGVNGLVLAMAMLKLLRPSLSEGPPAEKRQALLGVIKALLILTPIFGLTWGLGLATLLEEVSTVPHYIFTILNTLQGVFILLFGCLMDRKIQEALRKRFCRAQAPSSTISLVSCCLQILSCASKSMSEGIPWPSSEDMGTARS
Chain of Type-1 angiotensin II receptor (Homo sapiens) (P30556 whole entry): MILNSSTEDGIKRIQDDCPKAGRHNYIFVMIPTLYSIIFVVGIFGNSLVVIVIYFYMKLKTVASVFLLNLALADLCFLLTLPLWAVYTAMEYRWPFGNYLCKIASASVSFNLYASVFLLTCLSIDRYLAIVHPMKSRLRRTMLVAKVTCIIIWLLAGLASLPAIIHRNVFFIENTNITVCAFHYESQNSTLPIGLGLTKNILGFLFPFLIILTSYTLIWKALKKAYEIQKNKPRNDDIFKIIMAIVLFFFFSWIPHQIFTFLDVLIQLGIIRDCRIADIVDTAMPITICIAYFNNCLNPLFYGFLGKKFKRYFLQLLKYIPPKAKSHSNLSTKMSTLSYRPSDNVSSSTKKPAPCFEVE
Chain of Type-1 angiotensin II receptor (P30556 whole entry): as above
Chain of Delta-type opioid receptor (Homo sapiens) (P41143 whole entry): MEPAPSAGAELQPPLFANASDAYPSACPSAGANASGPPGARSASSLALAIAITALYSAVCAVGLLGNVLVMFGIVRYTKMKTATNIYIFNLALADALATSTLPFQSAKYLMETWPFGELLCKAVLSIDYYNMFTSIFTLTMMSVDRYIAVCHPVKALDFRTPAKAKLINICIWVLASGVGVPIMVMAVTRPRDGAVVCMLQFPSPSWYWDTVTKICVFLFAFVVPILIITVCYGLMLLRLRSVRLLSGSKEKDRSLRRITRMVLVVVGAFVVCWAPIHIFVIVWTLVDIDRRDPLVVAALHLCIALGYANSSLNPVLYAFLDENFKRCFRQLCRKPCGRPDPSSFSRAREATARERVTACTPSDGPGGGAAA
Chain of G-protein coupled receptor 62 (Homo sapiens) (Q9BZJ7 whole entry): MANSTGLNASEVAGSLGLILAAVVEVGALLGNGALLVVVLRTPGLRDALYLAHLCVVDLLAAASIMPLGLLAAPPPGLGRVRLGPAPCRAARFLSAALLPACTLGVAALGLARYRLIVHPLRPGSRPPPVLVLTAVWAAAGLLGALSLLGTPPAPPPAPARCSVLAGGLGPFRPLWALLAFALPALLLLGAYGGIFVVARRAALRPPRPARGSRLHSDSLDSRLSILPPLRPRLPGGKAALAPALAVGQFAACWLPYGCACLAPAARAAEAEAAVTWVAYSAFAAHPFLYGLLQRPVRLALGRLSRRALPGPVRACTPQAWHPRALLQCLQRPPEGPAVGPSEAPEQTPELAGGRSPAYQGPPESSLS
Chain of Galanin receptor type 2 (Homo sapiens) (O43603 whole entry): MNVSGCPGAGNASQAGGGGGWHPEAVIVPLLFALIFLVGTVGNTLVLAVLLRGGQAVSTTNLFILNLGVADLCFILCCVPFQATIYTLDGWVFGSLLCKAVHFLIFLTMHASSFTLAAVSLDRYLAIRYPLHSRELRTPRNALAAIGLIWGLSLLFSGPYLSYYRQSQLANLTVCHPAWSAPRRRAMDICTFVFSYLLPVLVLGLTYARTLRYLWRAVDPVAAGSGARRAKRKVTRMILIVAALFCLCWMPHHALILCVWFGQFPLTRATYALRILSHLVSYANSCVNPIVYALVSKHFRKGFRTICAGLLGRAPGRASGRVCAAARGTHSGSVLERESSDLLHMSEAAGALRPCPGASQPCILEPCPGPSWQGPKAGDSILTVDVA
Chain of P2Y purinoceptor 11 (Homo sapiens) (Q96G91 whole entry): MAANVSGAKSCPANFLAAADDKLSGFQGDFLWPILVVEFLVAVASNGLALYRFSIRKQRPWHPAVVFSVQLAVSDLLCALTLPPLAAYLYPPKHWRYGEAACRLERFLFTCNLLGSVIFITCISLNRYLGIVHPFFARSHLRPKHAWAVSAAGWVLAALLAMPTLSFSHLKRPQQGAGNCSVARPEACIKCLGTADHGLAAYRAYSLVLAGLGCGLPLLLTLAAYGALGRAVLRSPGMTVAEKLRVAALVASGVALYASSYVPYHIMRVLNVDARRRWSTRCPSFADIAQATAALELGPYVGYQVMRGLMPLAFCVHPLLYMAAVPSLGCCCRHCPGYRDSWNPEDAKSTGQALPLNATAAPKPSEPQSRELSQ
Chain of G-protein coupled receptor 35 (Homo sapiens) (Q9HC97 whole entry): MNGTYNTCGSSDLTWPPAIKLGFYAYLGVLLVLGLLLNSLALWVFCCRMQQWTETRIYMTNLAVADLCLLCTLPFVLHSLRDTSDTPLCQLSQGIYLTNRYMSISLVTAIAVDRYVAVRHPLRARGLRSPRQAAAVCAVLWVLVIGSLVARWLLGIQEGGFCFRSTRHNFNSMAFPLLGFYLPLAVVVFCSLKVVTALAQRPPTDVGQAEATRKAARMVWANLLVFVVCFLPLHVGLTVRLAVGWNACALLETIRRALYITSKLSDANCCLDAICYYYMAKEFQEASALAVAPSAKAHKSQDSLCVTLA

- RLU [1]: -2870
- RLU [2]: 634
- RLU [3]: 10800
- RLU [4]: 613
- RLU [5]: 153000
- RLU [6]: -638
- EC50 [7]: > 50 µM (not active)
- RLU [8]: -408
- RLU [9]: 401
- RLU [10]: -216
- RLU [11]: 1290
- RLU [12]: 2600
- RLU [13]: 1350
- RLU [14]: 1070
- RLU [15]: -1350
- RLU [16]: -333
- RLU [17]: -570
- RLU [18]: 9130
- RLU [19]: 68.6
- RLU [20]: -1250
- RLU [21]: 1.07e+06
- RLU [22]: -1300
- RLU [23]: 1300
- RLU [24]: 2720
- RLU [25]: 3790
- RLU [26]: -2730
- RLU [27]: -577
- RLU [28]: 1140
- RLU [29]: -1740
- RLU [30]: 812
- RLU [31]: 1540
- RLU [32]: -3640
- RLU [33]: 477000
- RLU [34]: 387
- RLU [35]: -2780
Structure (SMILES): CCCCC(=O)N1CC2(C1)CN(c1ccccc1-c1nnn[nH]1)C2
